How the values were obtained:
SARS-CoV-2 = format: cell-based
Vero E6 cells = details: parallel plates

| SMILES | effect on SARS-CoV-2 viral RNA in supernatants / replication (in words) (SARS-CoV-2) | compound cytotoxicity (in words) (Vero E6 cells) | potency at 48 hpi compared with 24 hpi (in words) (SARS-CoV-2) | IC50 (SARS-CoV-2; read-out: IC50, SARS-CoV-2 viral RNA in supernatants) |
| --- | --- | --- | --- | --- |
| CC(C)CN(C[C@@H](O)[C@H](Cc1ccccc1)NC(=O)O[C@H]1CCOC1)S(=O)(=O)c1ccc(N)cc1 [amprenavir] | modestly inhibited | without apparent cytotoxicity | – | – |
| CCC(CC)COC(=O)[C@H](C)N[P@](=O)(OC[C@H]1O[C@@](C#N)(c2ccc3c(N)ncnn23)[C@H](O)[C@@H]1O)Oc1ccccc1 [remdesivir] | substantially decreased | – | – | – |
| Cc1nc2ccc(Br)cc2c(-c2ccc(Cl)cc2)c1C(OC(C)(C)C)C(=O)O (centres unmarked) [ALLINI-2] | modestly inhibited | without apparent cytotoxicity | – | – |
| CCOC(=O)[C@H]1O[C@@H]1C(=O)N[C@@H](CC(C)C)C(=O)NCCC(C)C [E64D] | substantially decreased | minimal cytotoxicity | less potent | 3.3 µM |
| Cc1ccnc2c1NC(=O)c1cccnc1N2C1CC1 [nevirapine] | modestly inhibited | without apparent cytotoxicity | – | – |
| Cc1cccc(/C=N/Nc2cc(N3CCOCC3)nc(OCCc3ccccn3)n2)c1 [apilimod] | substantially decreased | minimal cytotoxicity | less potent | – |
